Measurements taken from paper PMC10180113, “Thermodynamic and Kinetic Stabilities of Al(III) Complexes with N2O3 Pentadentate Ligands” (Molecules, 2023).
Like-named read-outs stand apart in the source and are kept apart here. Marks after values point to notes of the source that are not given here.

How the values were obtained:
[1] = 0.1 M KNO3, 25 °C, cited from earlier work; for logKAlL: stability constant of Al(III) complex
[2] = cited from earlier work
[3] = parameters: method as in doi:10.1021/ac60305a041, doi:10.1021/ja00792a018; conditions: 0.5 M Me4NCl, 25 °C; cited from earlier work
[4] = parameters: method as in doi:10.1007/s11144-015-0892-6; conditions: 1.0 M NaCl, cited from earlier work
[5] = Stability and protonation constants of the Al(III) complexes (pH-potentiometry, 27Al NMR); format: physicochemical; conditions: 0.15 M NaNO3, 25 °C; for logβAlLH−1: cumulative stability constant of AlLH−1; for logKAlLH−1: protonation constant of AlLH−1 species, pH-potentiometry; for logKAlL: stability constant of Al(III) complex, 27Al NMR spectroscopy
Method: The stability and protonation constants of the Al(III) complexes of AMPTA, AMPDA-HB, and CD3A-Bn, defined by Equations (2)–(4), were investigated by pH-potentiometry and by multinuclear NMR spectroscopy at 25 °C in 0.15 M NaNO3 solution. (2) KAlL=AlL/Al^3+L (3) KAlLH−1=AlL/AlLH−1H^+ (4) Al^3++L+OH^− ⇌AlLH−1 βAlLH−1=AlLH−1/Al^3+LOH^−
In order to avoid the hydrolysis of the Al(III) ion, the pH-potentiometric titration of the pre-prepared complexes of AMPTA, AMPDA-HB, and CD3A-Bn ligands was performed at pH > 4.0.
To determine the stability constant of the Al(III) complexes, the ^1H and ^27Al NMR spectra of the Al^3+-AMPTA, Al^3+-AMPDA-HB, and Al^3+-CD3A-Bn systems were recorded in the pH range 8.0–12. ^1H and ^27Al NMR spectra of the three systems are shown in Figures S1–S6.
The analysis of the ^27Al NMR data was used for the calculation of the stability constants of the [Al(AMPTA)], [Al(AMPDA-HB)], and [Al(CD3A-Bn)] complexes. Integrals of the ^27Al NMR signal ([Al(OH)4]^− at 81 ppm, ν½ = 11 Hz; see Figures S2, S4 and S6) were used for the calculation of the logKAlL value of the three Al complexes by taking into account the protonation constant of the AlLH−1 species (Equation (3), Table 1) and the known hydrolysis constants of the free Al^3+ ion (logK[Al(OH)]^2+ = −4.60, logK[Al(OH)2]^+ = −9.09, logK[Al(OH)3] = −14.94 and logK[Al(OH)4]^− = −23.08, logK[Al2(OH)2]^4+ = −8.0, logK[Al3(OH)4]^5+ = −13.47, logK[Al13(OH)32]^7+ = −104.81). […] The equilibrium data obtained by pH-potentiometry and multinuclear NMR spectroscopy were used to calculate the species distribution diagram for the Al(III)-AMPTA, Al(III)AMPDA-HB, and Al(III)-CD3A-Bn systems (Figure 1, Figure 2 and Figure 3). The amount of [Al(OH)4]^− species determined by ^27Al NMR studies (Figures S2, S4 and S6) is also shown in Figure 2, Figure 3 and Figure 4.
(§1) The protonation constants of the AMPTA, AMPDA-HB, and CD3A-Bn and those of the Al(III) complexes were determined by pH-potentiometric titration. The metal-to-ligand concentration ratio was 1:1 (the concentration of the ligand was generally 0.002 M). For the pH measurements and titrations, a Metrohm 888 Titrando automatic titration workstation with a Metrohm-6.0234.110 combined electrode was used. Equilibrium measurements were carried out at a constant ionic strength (0.15 M NaNO3) in 6 mL samples at 25 °C under magnetic stirring and N2 bubbling. The titrations were made in the pH range 1.7–12.0. KH-phthalate (pH = 4.005) and borax (pH = 9.177) buffers were used to calibrate the pH meter. For the calculation of [H^+] from the measured pH values, the method proposed by Irving et al. was used. A 0.01 M HNO3 solution was titrated with the standardized NaOH solution in the presence of 0.15 M NaNO3 ionic strength.

[6] = Protonation constants of the ligands (pH-potentiometry, spectrophotometry); format: physicochemical; conditions: 0.15 M NaNO3, 25 °C; for logK1^H / logK2^H / logK3^H / logK4^H: pH-potentiometry; for ΣlogK1–4^H: total basicity
Method: Since the thermodynamic properties of any metal complex proposed for in vivo applications must be characterized by high thermodynamic stability, the equilibrium properties of AMPTA, AMPDA-HB, and CD3A-Bn ligands and their Al(III) complexes were investigated in detail. First, the protonation constants of the ligands, defined by Equation (1), were determined by pH-potentiometry and the logKi^H values are listed in Table 1. (1) KiH=HiL/Hi−1LH^+
as §1, with “strength. The differences (A) between the measured (pHread) and calculated pH (−log[H^+]) values were used to obtain the equilibrium H^+ concentration from the pH values measured in the titration experiments (A = −0.035). The waiting time between two pH measurements was 60 s. For the equilibrium calculations, the stoichiometric water ionic product (pKw) was also needed to calculate [OH^−] values under basic conditions. The VNaOH-pHread data pairs of the HNO3NaOH titration obtained in the pH range 10.5–12.0 were used to calculate the pKw value (pKw = 13.78). The protonation and stability constants were calculated with the PSEQUAD program.” for “strength.”

[7] = parameters: method as in PMID 31830368; conditions: cited from earlier work
[8] = parameters: method as in PMID 31830368; conditions: up to 4 h in PBS, serum, and EDTA solutions; cited from earlier work
[9] = Protonation constants of the ligands (pH-potentiometry, spectrophotometry); format: physicochemical; conditions: 0.15 M NaNO3, 25 °C

For `O=C(O)CN(CC(=O)O)[C@@H]1CCCC[C@H]1N(CC(=O)O)CC(=O)O` (relative stereo) [CDTA, trans-1,2-diaminocyclohexane-N,N,N′,N′-tetraacetic acid], the “logKAlLH−1” value [1] is given as 7.70 ^e, the “logβAlLH−1” value [1] is given as 11.2 ^e and the logKAlL [1] is given as 18.9 ^e. For the same compound, the “logK1^H” value ([2]; 0.15 M NaNO3, 25 °C) was 9.54, the “logK2^H” value ([2]; 0.15 M NaNO3, 25 °C) was 6.08 and the “logK3^H” value ([2]; 0.15 M NaNO3, 25 °C) was 3.65. The “logK4^H” value ([2]; 0.15 M NaNO3, 25 °C) was 2.69, the “logK5^H” value ([2]; 0.15 M NaNO3, 25 °C) was 1.14 and the “ΣlogK1–4^H” value ([2]; 0.15 M NaNO3, 25 °C) was 21.96.

In the case of `O=C(O)CN(CCN(CC(=O)O)CC(=O)O)CC(=O)O` [EDTA], the “logKAlLH−1” value [1] is given as 6.0 ^e, the “logβAlLH−1” value [1] is given as 10.5 ^e and the logKAlL [1] is given as 16.5 ^e. The “logK1^H” value ([2]; 0.15 M NaNO3, 25 °C) was 9.40, the “logK2^H” value ([2]; 0.15 M NaNO3, 25 °C) was 6.10 and the “logK3^H” value ([2]; 0.15 M NaNO3, 25 °C) was 2.72. For the same compound, the “logK4^H” value ([2]; 0.15 M NaNO3, 25 °C) was 2.08, the “logK5^H” value ([2]; 0.15 M NaNO3, 25 °C) was 1.23 and the “ΣlogK1–4^H” value ([2]; 0.15 M NaNO3, 25 °C) was 20.30.

For `O=C([O-])CN(CC(=O)O)C1CCCCC1N(CC(=O)O)CC(=O)O.[Na+]` (stereo not shown) [[Na(CDTA)]^3−], the logKNaL [3] is given as 4.66.

For `O=C([O-])CN1CCN(CC(=O)[O-])CCN(CC(=O)[O-])CC1.[Al+3]` [[Al(NOTA)]], the “KAl(L)H−2 (KAl(NOTA)H−1 for [Al(NOTA)])” value ([4]; 25 °C) is given as 1.6 × 10^12 c M^−1, the k0 ([4]; 25 °C) is given as 2e-06 s⁻¹ and the “k1 (kOH for [Al(NOTA)])” value ([4]; 25 °C) is given as 6.8 × 10^−6 b M^−1 s^−1. The “logKAl(L)H−2” value ([4]; 25 °C) was 12.2, the “kd (pH = 7.4)” value ([4]; pH 7.4, 25 °C) was 2 × 10^−6 s^−1 and the “t1/2 (pH = 7.4), dissociation half-life (ln2/kd)” value ([4]; pH 7.4, 25 °C) was 94 h.

In the case of `O=C([O-])CN(CCN(CC(=O)O)CC(=O)O)CC(=O)O.[Na+]` [[Na(EDTA)]^3−], the logKNaL [3] is listed as 1.43.

In the case of `O=C(O)CN(CC(=O)O)[C@@H]1CCCC[C@H]1N(CC(=O)O)Cc1ccccc1` [CD3A-Bn, trans-1,2-diaminocyclohexane-N-benzyl-N,N′,N′-triacetic acid], the “logβAlLH−1” value [5] is reported as 9.3 (1), the “logKAlLH−1” value [5] is reported as 5.20 (4) and the logKAlL [5] is reported as 14.5 (1) ^d. The “logK1^H” value [6] was 10.72 (2), the “logK2^H” value [6] was 5.22 (3) and the “logK3^H” value [6] was 3.34 (3). The “logK4^H” value [6] was 0.59 (9) and the “ΣlogK1–4^H” value [6] was 19.87.

For `Oc1ccccc1` [phenol], the “logK^H” value ([2]; 0.1 M NaClO4) is listed as 10.0.

For `O=C(O)CN(CC(=O)O)CC1CCCCN1CC(=O)O` (stereo not shown) [AMPTA], the “logβAlLH−1” value [5] was 9.8 (1), the “logKAlLH−1” value [5] was 5.06 (6) and the logKAlL [5] was 14.9 (1) ^d. The “logK1^H” value [6] was 11.49 (1), the “logK2^H” value [6] was 5.56 (4) and the “logK3^H” value [6] was 2.75 (5). For the same compound, the “logK4^H” value [6] was 1.73 (5), the “ΣlogK1–4^H” value [6] was 21.53 and the “logK1^H” value ([2]; 0.15 M NaCl, 25 °C) was 11.67. For the same compound, the “logK2^H” value ([2]; 0.15 M NaCl, 25 °C) was 5.47, the “logK3^H” value ([2]; 0.15 M NaCl, 25 °C) was 2.74 and the “logK4^H” value ([2]; 0.15 M NaCl, 25 °C) was 1.62. The “ΣlogK1–4^H” value ([2]; 0.15 M NaCl, 25 °C) was 21.50.

In the case of `O=C(O)CN(Cc1ccccc1O)CC1CCCCN1CC(=O)O` (stereo not shown) [AMPDA-HB], the “logβAlLH−1” value [5] is reported as 11.7 (1), the “logKAlLH−1” value [5] is reported as 6.94 (6) and the logKAlL [5] is reported as 18.6 (1) ^d. The “excretion of the [Al18F]-labelled complex in vivo” value [7] was “rapid hepatobiliary and renal excretion”, the “accumulation in the bones of the [Al18F]-labelled complex” value ([7]; in vivo) was “low accumulation in the bones” and the “stability in vitro of the [Al18F]-labelled complex” value [8] was “high stability”. The “logK3^H” value [6] was 4.94 (5), the “logK4^H” value [6] was 2.01 (5) and the “ΣlogK1–4^H” value [6] was 28.87. The “logK1^H” value ([2]; 0.15 M NaCl, 25 °C) was 12.4, the “logK2^H” value ([2]; 0.15 M NaCl, 25 °C) was 10.14 and the “logK3^H” value ([2]; 0.15 M NaCl, 25 °C) was 4.76. The “logK4^H” value ([2]; 0.15 M NaCl, 25 °C) was 1.91, the “ΣlogK1–4^H” value ([2]; 0.15 M NaCl, 25 °C) was 29.21 and the “logK1^H” value [9] was 12.0 (1) ^b. The “logK2^H” value [9] was 9.92 (5) ^b.
